Results as given in US20250288619A1, “PHARMACEUTICAL COMPOSITION, MEGASPHAERA, AND USE THEREOF” (MOON (GUANGZHOU) BIOTECH CO., LTD., priority 2022, published 2025).

How the values were obtained:
[1] = tested on: strain MNH05026; assay: Antibiotic sensitivity test by disk diffusion method, strain MNH05026; type: cell-based, Megasphaera sp.
Experimental: (§1) Antibiotic sensitivity tests of the strains MNH05026, MNH22004, and MNH27256: Antibiotic sensitivity tests were carried out on the strain MNH05026 by a disk diffusion method.

[2] = tested on: strain MNH22004; assay: Antibiotic sensitivity test by disk diffusion method, strain MNH22004; type: cell-based, Megasphaera sp.
Experimental: as §1

[3] = tested on: strain MNH27256; assay: Antibiotic sensitivity test by disk diffusion method, strain MNH27256; type: cell-based, Megasphaera sp.
Experimental: as §1

[4] = tested on: ectopic syngeneic liver cancer model; assay: Therapeutic effect of MNH05026 in combination with Lenvatinib on liver cancer; type: in vivo, mouse; settings: male BALB/c mice
Description: 104 male BALB/c mice were purchased, and inoculated with tumor cells after the quarantine was completed, to establish an ectopic syngeneic liver cancer model. The day of tumor cell inoculation was D1. […] Mice with abnormal tumor growth were discarded and the remaining mice were randomized into 10 groups according to the tumor volume on that day, with 7 mice per group. […] Group A was the Negative Control group, Group B was the positive control Lenvatinib group, Group J was the Lenvatinib+MNH05026 combination group, and Groups C-I received other test articles in combination with Lenvatinib. On the day of grouping, interventions were carried out according to the grouping. During the experiment, animal characteristics, tumor changes, tumor sizes, and mouse weights were monitored regularly. At the experimental endpoint, body weight changes, tumor volume changes, response rates, and tumor growth inhibition rates were analyzed.
(§2) Statistical analysis was performed using Two-Way ANOVA with Dunnett's multiple comparisons at the experimental endpoint. Significance of difference vs. the Control group: not significant (ns), p value≥0.05; *, p value<0.05; **, p value<0.01; ***, p value<0.001; ****, p value<0.0001.
as §2, with “FIGS. 17B and 17C present the mouse tumor volume data as mean±standard deviation (mm3). Statistical” for “Statistical”

Compound	Diameter of inhibition zone by MNH05026 [1]	Sensitivity or resistance of strain MNH05026 to the antibiotic [1]	Diameter of inhibition zone by MNH22004 [2]	Sensitivity or resistance of strain MNH22004 to the antibiotic [2]	Diameter of inhibition zone by MNH27256 [3]	Sensitivity or resistance of strain MNH27256 to the antibiotic [3]	Body weight during the experiment [4]	Response rate [4]	Tumor volume at the experimental endpoint vs Control group [4]
CC1(C)S[C@@H]2[C@H](NC(=O)[C@H](N)c3ccccc3)C(=O)N2[C@H]1C(=O)O [Ampicillin]	19.91 mm	sensitive	0 mm	resistant	0 mm	resistant	–	–	–
CO/N=C(\C(=O)N[C@@H]1C(=O)N2C(C(=O)O)=C(CSc3nc(=O)c(=O)[nH]n3C)CS[C@H]12)c1csc(N)n1 [Ceftriaxone]	29.42 mm	sensitive	12.78 mm	sensitive	0 mm	resistant	–	–	–
O=C(N[C@H](CO)[C@H](O)c1ccc([N+](=O)[O-])cc1)C(Cl)Cl [Chloramphenicol]	37.02 mm	sensitive	33.29 mm	sensitive	34.45 mm	sensitive	–	–	–
O=C(O)c1cn(C2CC2)c2cc(N3CCNCC3)c(F)cc2c1=O [Ciprofloxacin]	37.66 mm	sensitive	35.42 mm	sensitive	34.69 mm	sensitive	–	–	–
CC[C@H]1OC(=O)[C@H](C)[C@@H](O[C@H]2C[C@@](C)(OC)[C@@H](O)[C@H](C)O2)[C@H](C)[C@@H](O[C@@H]2O[C@H](C)C[C@H](N(C)C)[C@H]2O)[C@](C)(O)C[C@@H](C)C(=O)[C@H](C)[C@@H](O)[C@]1(C)O [Erythromycin]	15.65 mm	sensitive	21.03 mm	sensitive	9.0 mm	sensitive	–	–	–
COc1cc2nccc(Oc3ccc(NC(=O)NC4CC4)c(Cl)c3)c2cc1C(N)=O [Lenvatinib]	–	–	–	–	–	–	increased steadily	85.71%	significant decrease
CCC[C@@H]1C[C@@H](C(=O)N[C@@H]([C@H]2O[C@H](SC)[C@H](O)[C@@H](O)[C@H]2O)[C@@H](C)O)N(C)C1 [Lincomycin]	38.99 mm	sensitive	11.34 mm	sensitive	8.81 mm	sensitive	–	–	–
CN(C)[C@@H]1C(O)=C(C(N)=O)C(=O)[C@@]2(O)C(O)=C3C(=O)c4c(O)cccc4[C@@](C)(O)[C@H]3C[C@@H]12 [Tetracycline]	21.44 mm	–	10.48 mm	–	17.75 mm	–	–	–	–
Gentamicin	13.97 mm	sensitive	9.00 mm	sensitive	9.37 mm	sensitive	–	–	–
Penicillin	29.75 mm	sensitive	0 mm	resistant	0 mm	resistant	–	–	–
Trimethoprim-sulfamethoxazole	10.65 mm	sensitive	17.08 mm	sensitive	12.75 mm	sensitive	–	–	–
